Test results reported in ChEMBL document CHEMBL1201862, “PubChem BioAssay data set” (2004).
Activity calls are given as the source filed them.

Tests used:
[1] = biological target: T1, Heat shock factor protein 1 (Mus musculus, UniProt P38532); experiment: HSF1 potentiators in luciferase reporter cells, confirmation, cell-based, NIH3T3, luminescence, dose retest (AID 435004); assay type: functional;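 note: stress induced by proteasome inhibitor MG132 added 30 min after compound; luciferase reporter driven by HSF1 response element in NIH3T3 cells; actives raise luminescence as potentiators of the MG132 stress response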
T1 sequence (P38532 whole entry): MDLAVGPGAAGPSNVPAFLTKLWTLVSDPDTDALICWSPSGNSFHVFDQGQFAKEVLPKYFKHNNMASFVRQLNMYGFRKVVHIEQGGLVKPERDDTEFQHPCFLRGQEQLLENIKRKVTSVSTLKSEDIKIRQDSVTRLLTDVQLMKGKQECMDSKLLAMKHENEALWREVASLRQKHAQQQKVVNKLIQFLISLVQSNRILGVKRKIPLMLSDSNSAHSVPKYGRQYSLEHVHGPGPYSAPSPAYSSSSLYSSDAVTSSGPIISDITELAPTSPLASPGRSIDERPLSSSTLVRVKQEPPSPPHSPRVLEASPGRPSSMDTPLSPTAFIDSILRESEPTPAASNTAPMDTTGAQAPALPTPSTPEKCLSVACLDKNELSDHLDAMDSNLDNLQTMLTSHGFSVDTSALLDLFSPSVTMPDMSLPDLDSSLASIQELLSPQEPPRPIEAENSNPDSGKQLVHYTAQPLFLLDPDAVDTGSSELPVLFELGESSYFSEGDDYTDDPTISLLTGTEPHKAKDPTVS

[2] = biological target: T2, Replicative DNA helicase DnaB (Mycobacterium tuberculosis, UniProt P9WMR3); experiment: DnaB intein splicing inhibitors, dose response, biochemical, cell-free fluorescence (AID 449749); assay type: functional
T2 sequence (P9WMR3 whole entry): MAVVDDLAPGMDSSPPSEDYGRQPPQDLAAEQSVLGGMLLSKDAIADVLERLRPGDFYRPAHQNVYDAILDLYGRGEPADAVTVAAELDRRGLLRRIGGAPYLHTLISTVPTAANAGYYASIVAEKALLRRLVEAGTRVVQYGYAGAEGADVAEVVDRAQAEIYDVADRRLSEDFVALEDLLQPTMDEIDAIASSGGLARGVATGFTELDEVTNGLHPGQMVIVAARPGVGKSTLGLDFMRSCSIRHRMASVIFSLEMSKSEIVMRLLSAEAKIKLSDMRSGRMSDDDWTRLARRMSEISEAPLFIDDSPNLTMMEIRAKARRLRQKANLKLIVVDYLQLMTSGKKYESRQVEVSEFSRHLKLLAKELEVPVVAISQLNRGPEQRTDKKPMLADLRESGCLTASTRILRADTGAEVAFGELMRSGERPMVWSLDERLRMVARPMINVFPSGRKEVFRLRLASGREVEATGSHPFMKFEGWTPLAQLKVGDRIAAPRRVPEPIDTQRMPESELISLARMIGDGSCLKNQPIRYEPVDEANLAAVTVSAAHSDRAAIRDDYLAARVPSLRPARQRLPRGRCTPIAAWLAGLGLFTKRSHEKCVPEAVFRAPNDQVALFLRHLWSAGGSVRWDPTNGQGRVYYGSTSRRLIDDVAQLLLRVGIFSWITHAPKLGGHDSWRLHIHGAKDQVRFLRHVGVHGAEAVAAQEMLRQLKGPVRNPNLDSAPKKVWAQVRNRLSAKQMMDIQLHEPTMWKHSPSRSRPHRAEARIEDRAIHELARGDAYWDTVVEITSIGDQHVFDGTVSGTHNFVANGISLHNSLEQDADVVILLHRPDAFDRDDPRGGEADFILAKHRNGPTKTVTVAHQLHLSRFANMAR

[3] = system: Vero; experiment: Vero cell cytotoxicity, cytotoxicity control for flavivirus capping enzyme inhibitors (AID 588742); assay type: functional; details: Chlorocebus sabaeus
[4] = biological target: T3, Protein RecA (Mycobacterium tuberculosis, UniProt P9WHJ3); experiment: Fluorescence Cell-Free Homogeneous Dose Retest to Identify Inhibitors of RecA-Intein Splicing Activity. [Related pubchem assays (depositor defined):AID2097, AID2223, AID489010, AID492950]; assay type: functional
T3 sequence (P9WHJ3 whole entry): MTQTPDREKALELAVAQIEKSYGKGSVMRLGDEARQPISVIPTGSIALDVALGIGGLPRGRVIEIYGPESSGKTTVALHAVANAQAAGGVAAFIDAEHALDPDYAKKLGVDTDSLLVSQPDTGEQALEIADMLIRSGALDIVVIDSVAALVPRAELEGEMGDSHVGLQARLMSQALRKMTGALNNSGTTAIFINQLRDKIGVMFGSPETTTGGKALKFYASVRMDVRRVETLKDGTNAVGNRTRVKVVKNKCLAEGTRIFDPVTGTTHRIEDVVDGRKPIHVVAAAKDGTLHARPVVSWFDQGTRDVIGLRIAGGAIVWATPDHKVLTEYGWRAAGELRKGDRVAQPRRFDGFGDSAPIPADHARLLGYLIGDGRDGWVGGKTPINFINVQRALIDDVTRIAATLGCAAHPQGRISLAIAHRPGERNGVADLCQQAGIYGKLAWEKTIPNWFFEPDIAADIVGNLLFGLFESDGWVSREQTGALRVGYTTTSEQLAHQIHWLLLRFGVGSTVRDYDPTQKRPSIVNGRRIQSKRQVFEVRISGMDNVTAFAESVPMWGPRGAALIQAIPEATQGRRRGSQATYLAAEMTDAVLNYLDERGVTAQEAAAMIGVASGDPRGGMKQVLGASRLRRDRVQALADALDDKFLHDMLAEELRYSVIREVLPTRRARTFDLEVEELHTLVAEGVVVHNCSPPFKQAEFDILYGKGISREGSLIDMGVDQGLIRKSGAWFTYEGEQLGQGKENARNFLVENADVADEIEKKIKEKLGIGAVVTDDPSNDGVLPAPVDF

[5] = system: INS1; experiment: beta cell apoptosis inhibitors, cytokine rescue, dose response, luminescence, retest (AID 449756); assay type: functional, cell-based; details: Rattus norvegicus;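 note: cell death triggered by IL-1 beta plus TNF-alpha plus IFN-gamma mixture; protective hits raise ATP signal compared with cytokine alone wells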
[6] = biological target: Tyrosyl-DNA phosphodiesterase 2 (Homo sapiens, UniProt O95551); experiment: human TDP2 enzyme inhibitors, dose response, biochemical, epi absorbance, IC50 (AID 743297)
Chain of Tyrosyl-DNA phosphodiesterase 2 (O95551 whole entry): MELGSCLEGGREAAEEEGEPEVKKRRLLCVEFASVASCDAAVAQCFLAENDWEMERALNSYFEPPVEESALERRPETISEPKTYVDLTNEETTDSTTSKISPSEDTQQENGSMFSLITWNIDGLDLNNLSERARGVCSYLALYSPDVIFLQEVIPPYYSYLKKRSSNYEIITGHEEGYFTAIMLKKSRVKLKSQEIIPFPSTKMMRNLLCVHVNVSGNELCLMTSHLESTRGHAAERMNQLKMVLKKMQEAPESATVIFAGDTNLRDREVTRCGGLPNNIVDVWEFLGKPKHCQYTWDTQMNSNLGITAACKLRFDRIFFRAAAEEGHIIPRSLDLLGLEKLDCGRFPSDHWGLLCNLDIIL

Cc1ccc(NC2=CC(=O)C(=O)c3ccccc32)cc1
EC50 [1]: 7040 nM (active) | AC50 [2]: 971 nM (active) | CC50 [3]: 11400 nM (active) | EC50 [4]: 999 nM (active) | AC50 [5]: 2630 nM (active) | IC50 [6]: 26200 nM (inactive)

O=C(O)c1ccc(S(=O)(=O)/N=C2\C=C(Nc3ccccc3F)C(=O)c3ccccc32)cc1
EC50 [1]: > 260000 nM (inconclusive) | AC50 [2]: 146 nM (active) | CC50 [3]: 26400 nM (active) | EC50 [4]: 66.3 nM (active) | AC50 [5]: 2610 nM (active)
